Drawing on PubChem BioAssay (NCI), this text covers TGI and GI50 for 13 molecules.

Among the test systems are CAKI-1 renal; COLO 205 colon; KM12 colon; LOX IMVI melanoma; MALME-3M melanoma; OVCAR-5 ovarian; SK-MEL-28 melanoma; SR leukemia; UO-31 renal; HCC-2998 colon.
Holding throughout (test): growth of human tumour cells (NCI), 48 h

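Compound exposure: 48 hours, 5 concentrations, 96-well plates. GI50: concentration for 50% inhibition of growth. TGI: concentration producing complete growth inhibition.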

With `O=C(O)c1nnsc1-c1ccc(-c2snnc2C(=O)O)cc1`, the TGI with CAKI-1 renal, in the assay with COLO 205 colon, in the assay with KM12 colon, in the assay with LOX IMVI melanoma, in the assay on MALME-3M melanoma and in the assay with OVCAR-5 ovarian was over 100 µM each time. Further, the TGI in the assay with SK-MEL-28 melanoma, with SR leukemia and in the assay on UO-31 renal was over 100 µM in each case.

Regarding `CCCCC#CC1=C(Br)C(=O)OC1`, the GI50 in the assay with CAKI-1 renal is 1.26 µM; with COLO 205 colon, 2.66 µM; in the assay with KM12 colon, 1.8 µM; in the assay with LOX IMVI melanoma, 0.318 µM; in the assay with MALME-3M melanoma it was 1.73 µM; in the assay on OVCAR-5 ovarian, 2.73 µM. In addition, the results for the GI50 in the assay on SK-MEL-28 melanoma, in the assay on SR leukemia and in the assay with UO-31 renal were 3.48 µM, 0.36 µM and 1.37 µM, respectively. In addition, the TGI is 4.63 µM in the assay with CAKI-1 renal; over 22.2 µM in the assay on COLO 205 colon; 3.89 µM in the assay on KM12 colon; 4.13 µM in the assay with MALME-3M melanoma; 7.38 µM in the assay on OVCAR-5 ovarian; 16.4 µM with SK-MEL-28 melanoma. Further, the values for the TGI in the assay on SR leukemia and with UO-31 renal were over 100 µM and 3.1 µM, respectively.

As for `Cc1c2n(c(=O)[nH]c1=O)C1OC(CO)C(O2)C1O` (centres undefined), the TGI in the assay with CAKI-1 renal, with COLO 205 colon, in the assay with KM12 colon, in the assay on LOX IMVI melanoma, in the assay with SK-MEL-28 melanoma and in the assay with SR leukemia was over 100 µM throughout. In addition, the TGI in the assay on UO-31 renal is over 100 µM.

For `Cc1ccc(S(=O)(=O)Nc2ccccc2C=O)cc1`, the TGI in the assay with CAKI-1 renal is over 100 µM; in the assay with COLO 205 colon, 33.2 µM; with KM12 colon, 33.5 µM; in the assay on LOX IMVI melanoma it was 27.5 µM; with MALME-3M melanoma, 46.1 µM; in the assay with OVCAR-5 ovarian, 67 µM. Also, the TGI was determined as 64.7 µM in the assay with SK-MEL-28 melanoma, 86.3 µM in the assay on SR leukemia and 26.8 µM in the assay with UO-31 renal.

`O=C1CCC(Cl)=CC2CCCN12` (centres undefined): the TGI in the assay with CAKI-1 renal, in the assay with COLO 205 colon, in the assay on HCC-2998 colon, with LOX IMVI melanoma, in the assay on MALME-3M melanoma and in the assay on OVCAR-5 ovarian was over 100 µM each time. In addition, the TGI in the assay on SK-MEL-28 melanoma and in the assay with UO-31 renal was over 100 µM throughout.

Regarding `NC(=S)N/N=C/C(=O)O`, the GI50 with CAKI-1 renal, with COLO 205 colon, in the assay on KM12 colon, with LOX IMVI melanoma, in the assay with OVCAR-5 ovarian and in the assay on SK-MEL-28 melanoma was over 100 µM each time. The GI50 with SR leukemia and in the assay on UO-31 renal was over 100 µM each time. The TGI with CAKI-1 renal, in the assay on COLO 205 colon, with KM12 colon, in the assay on LOX IMVI melanoma, with OVCAR-5 ovarian and in the assay with SK-MEL-28 melanoma was over 100 µM throughout. Further, the TGI with SR leukemia and in the assay on UO-31 renal was over 100 µM throughout.

For the molecule `N#Cc1c(N)nc(N2CCOCC2)c(C#N)c1-c1ccncc1`, the GI50 with CAKI-1 renal was 49.1 µM; in the assay with COLO 205 colon it was over 100 µM; with HCC-2998 colon, 13.3 µM; in the assay with KM12 colon, over 100 µM; in the assay with LOX IMVI melanoma, 80.1 µM; with MALME-3M melanoma, 9.04 µM. Moreover, the figures for the GI50 in the assay with OVCAR-5 ovarian, with SK-MEL-28 melanoma and in the assay with UO-31 renal were 27 µM, over 100 µM and 31.3 µM, respectively. The TGI was over 100 µM in the assay on CAKI-1 renal; over 100 µM in the assay on COLO 205 colon; 64.3 µM with HCC-2998 colon; over 100 µM in the assay on KM12 colon; over 100 µM in the assay on LOX IMVI melanoma; 98.1 µM with MALME-3M melanoma. The TGI in the assay with OVCAR-5 ovarian, with SK-MEL-28 melanoma and in the assay on UO-31 renal was over 100 µM in each case.

In the case of `N.N.N.N.O=C([O-])CCl.O=C([O-])CCl.[Co+3].[O-][Cl+3]([O-])([O-])[O-]`, the GI50 with COLO 205 colon, with HCC-2998 colon, with KM12 colon, in the assay with LOX IMVI melanoma, in the assay on MALME-3M melanoma and with OVCAR-5 ovarian was over 100 µM each time. Also, the GI50 with SK-MEL-28 melanoma and in the assay on UO-31 renal was over 100 µM each time. Moreover, the TGI in the assay with COLO 205 colon, with HCC-2998 colon, in the assay with KM12 colon, in the assay on LOX IMVI melanoma, with MALME-3M melanoma and with OVCAR-5 ovarian was over 100 µM throughout. The TGI with SK-MEL-28 melanoma and with UO-31 renal was over 100 µM throughout.

`O=C1CCC2(c3ccc(Cl)cc3)Nc3ncccc3N12` (centres undefined): the TGI with CAKI-1 renal, in the assay with COLO 205 colon, in the assay with HCC-2998 colon, with KM12 colon, in the assay with LOX IMVI melanoma and in the assay on MALME-3M melanoma was over 100 µM throughout. Also, the TGI in the assay with OVCAR-5 ovarian, in the assay with SK-MEL-28 melanoma and with UO-31 renal was over 100 µM each time.

For `COc1ccc2occ(CCC(=O)O)c2c1`, the TGI with CAKI-1 renal, in the assay with COLO 205 colon, in the assay with HCC-2998 colon, in the assay with LOX IMVI melanoma and in the assay with SK-MEL-28 melanoma was over 100 µM throughout.

For the molecule `CCC(=O)CC(=O)CCC(=O)Nc1cc(C)ccc1C`, the TGI with KM12 colon, with LOX IMVI melanoma, in the assay on MALME-3M melanoma, in the assay with SK-MEL-28 melanoma, in the assay on SR leukemia and in the assay with UO-31 renal was over 100 µM in each case.

As for `OC(CC1SCCCS1)c1ccccc1` (centres undefined), the TGI in the assay on CAKI-1 renal, in the assay with COLO 205 colon, with HCC-2998 colon, with KM12 colon, in the assay on MALME-3M melanoma and in the assay with OVCAR-5 ovarian was over 100 µM each time. This molecule also had a TGI in the assay on UO-31 renal of over 100 µM.

With `CC(C)N(C(=O)C12C3C4C1C1C4(C#N)C3C12C#N)C(C)C` (centres undefined), the TGI with CAKI-1 renal, in the assay on COLO 205 colon, with HCC-2998 colon, with MALME-3M melanoma, with OVCAR-5 ovarian and in the assay on SK-MEL-28 melanoma was over 100 µM throughout. The TGI with UO-31 renal is over 100 µM.
